Test results taken from PMC10254170, “Diastereoselective Synthesis of the Borylated D-Galactose Monosaccharide 3-Boronic-3-Deoxy-D-Galactose and Biological Evaluation in Glycosidase Inhibition and in Cancer for Boron Neutron Capture Therapy (BNCT)” (Molecules, 2023).
Where two headings read alike, the source gives them in different places.

Tests used:
Jack bean α-mannosidase = molecular target: T1, Jack bean α-mannosidase (Canavalia ensiformis, UniProt C0HJB3); assay: Glycosidase inhibition, Jack bean α-mannosidase; assay type: biochemical
T1 construct: purchased Sigma-Aldrich Co
T1 sequence (C0HJB3 1-981): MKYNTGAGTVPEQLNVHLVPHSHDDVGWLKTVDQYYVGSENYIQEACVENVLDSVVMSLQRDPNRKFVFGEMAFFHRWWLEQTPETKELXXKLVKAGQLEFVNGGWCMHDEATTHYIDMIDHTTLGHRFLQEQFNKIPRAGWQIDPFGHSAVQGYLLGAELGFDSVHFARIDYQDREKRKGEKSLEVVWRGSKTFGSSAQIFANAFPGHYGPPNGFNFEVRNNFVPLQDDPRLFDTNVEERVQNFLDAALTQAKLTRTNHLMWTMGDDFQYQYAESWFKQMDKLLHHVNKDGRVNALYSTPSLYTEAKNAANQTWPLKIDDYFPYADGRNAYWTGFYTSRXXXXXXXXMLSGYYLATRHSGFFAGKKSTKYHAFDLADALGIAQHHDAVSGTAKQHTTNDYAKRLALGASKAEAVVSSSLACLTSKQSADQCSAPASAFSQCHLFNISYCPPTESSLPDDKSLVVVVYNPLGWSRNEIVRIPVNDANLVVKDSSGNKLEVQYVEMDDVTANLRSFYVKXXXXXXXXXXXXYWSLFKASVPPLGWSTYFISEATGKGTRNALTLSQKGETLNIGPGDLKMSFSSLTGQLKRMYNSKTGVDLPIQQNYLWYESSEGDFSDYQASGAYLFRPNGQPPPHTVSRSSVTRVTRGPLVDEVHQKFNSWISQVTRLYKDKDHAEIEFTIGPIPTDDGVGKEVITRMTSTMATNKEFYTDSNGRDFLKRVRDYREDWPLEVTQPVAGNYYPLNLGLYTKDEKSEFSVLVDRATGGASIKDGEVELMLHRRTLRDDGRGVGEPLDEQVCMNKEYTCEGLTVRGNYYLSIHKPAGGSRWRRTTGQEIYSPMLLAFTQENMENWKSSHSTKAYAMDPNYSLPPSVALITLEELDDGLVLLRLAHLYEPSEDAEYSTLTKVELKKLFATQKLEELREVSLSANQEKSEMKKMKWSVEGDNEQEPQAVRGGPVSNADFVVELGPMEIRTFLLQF
Description: (§1) Glycosidase modulation studies need to explore selectivity as well as potency. Our drugs and controls are therefore screened against a panel of glycosidases in methanol (Table 1) to identify the glycosidase-related disease area(s), selectivity profile, and potency of biological action for each drug. The presence of organic boron covalently bonded to the drug structure also grants a reduced toxicity profile. Following the glycosidase inhibition range recommendations, an IC50 value >250 μm denotes weak inhibition, 100–249 μm denotes moderate inhibition, 10–99 μm good inhibition, 0.1–9 μm potent inhibition, and <0.1 μm very potent inhibition. […] Our boronated D-galactose 7 represents a novel lead in glycosidase inhibition.
(§2) The glycosidases screened are the following: rice α-glucosidase, yeast α-glucosidase, Bacillus α-glucosidase, rat intestinal maltase α-glucosidase, almond β-glucosidase, bovine liver β-glucosidase, coffee beans α-galactosidase, bovine liver β-galactosidase, Jack bean α-mannosidase, snail β-mannosidase, Penicillium decumbens α-L-rhamnosidase, bovine kidney α-L-fucosidase, Eschierichia coli β-glucuronidase, bovine liver β-glucuronidase, porcine kidney trehalase, Aspergillus niger amyloglucosidase, and bovine kidney N-acetyl-β-glucosaminidase. The disease areas for each glycosidase are summarized in [1].
(§3) The enzymes α-glucosidase (from yeast), β-glucosidases (from almond and bovine liver), α-galactosidase (from coffee beans), β-galactosidase (from bovine liver), α-mannosidase (from Jack bean), β-mannosidase (from snail), α-L-rhamnosidase (from Penicillium decumbens), α-L-fucosidase (from bovine kidney), trehalase (from porcine kidney), β-glucuronidases (from E. coli and bovine liver), amyloglucosidase (from A. niger), para-nitrophenyl glycosides, and various disaccharides were purchased from Sigma-Aldrich Co.
(§4) Brush border membranes were prepared from the rat small intestine according to the method of Kessler et al. and were assayed at pH 6.8 for rat intestinal maltase using maltose. For rat intestinal maltase, porcine kidney trehalase, and A. niger amyloglucosidase activities, the reaction mixture contained 25 mM maltose and the appropriate amount of enzyme, and the incubations were performed for 10–30 min at 37 °C. The reaction was stopped by heating at 100 °C for 3 min. After centrifugation (600 g; 10 min), the resulting reaction mixture was added to the Glucose CII-test Wako (Wako Pure Chemical Ind., Osaka, Japan). The absorbance at 505 nm was measured to determine the amount of the released D-glucose. Other glycosidase activities were determined using an appropriate para-nitrophenyl glycoside as substrate at the optimum pH of each enzyme. The reaction mixture contained 2 mM of the substrate and the appropriate amount of enzyme. The reaction was stopped by the addition of 400 mM Na2CO3. The released para-nitrophenol was measured spectrometrically at 400 nm. All reactions run in methanol.

[1] = tested on: bovine liver β-galactosidase; assay: Glycosidase inhibition, bovine liver β-galactosidase; assay type: biochemical; details: for inhibition %: in methanol
Description: as §1, §2, §3, §4

BE2-C (neuroblastoma) = assay: Cancer screening (MTT growth inhibition), BE2-C; assay type: cell-based; details: 72 h; for Percentage (%) cell growth inhibition / inhibition at 25 µM: 25 µM of drug, n = 3, mean ± SEM; for inhibition at 25 µM: read-out: Percentage (%) cell growth inhibition
Method: (§5) All test agents were prepared as stock solutions (20 mM) in dimethyl sulfoxide (DMSO) and stored at −20 °C. Cell lines used in the study included: HT29 (colorectal carcinoma), U87 and SJ-G2 (glioblastoma), MCF-7 (breast carcinoma), A2780 (ovarian carcinoma), H460 (lung carcinoma), A431 (skin carcinoma), Du145 (prostate carcinoma), BE2-C (neuroblastoma), MiaPaCa-2 (pancreatic carcinoma), SMA560 (spontaneous murine astrocytoma), and ADDP (Cis Res Ovarian), together with one non-tumor-derived normal breast cell line (MCF10A). All cell lines were incubated in a humidified atmosphere with 5 % CO2 at 37 °C. The cancer cell lines were maintained in Dulbecco’s modified Eagle’s medium (DMEM; Sigma, Australia) supplemented with fetal bovine serum (10%), sodium pyruvate (10 mM), penicillin (100 IUmL^−1), streptomycin (100 µg mL^−1), and L-glutamine (2 mM).
(§6) Growth inhibition was determined by plating cells in duplicate in medium (100 µL) at a density of 2500–4000 cells per well in 96-well plates. On day 0 (24 h after plating), when the cells are in logarithmic growth, medium (100 µL) with or without the test agent was added to each well. After 72 h of drug exposure, growth inhibitory effects were evaluated using the (3-(4,5-dimethyltiazol-2-yl)-2,5-diphenyltetrazolium bromide) (MTT) assay and absorbance read at 540 nm. The percentage growth inhibition was calculated at a fixed concentration of 25 µM, based on the difference between the optical density values on day 0 and those at the end of drug exposure. Each data point is the mean ± the standard error of the mean (SEM) calculated from three replicates, which were performed on separate occasions and in separate cell line passages.

[2] = tested on: Penicillium decumbens α-L-rhamnosidase; assay: Glycosidase inhibition, Penicillium decumbens α-L-rhamnosidase; assay type: biochemical; details: for inhibition %: in methanol
Description: as §1, §2, §3, §4

[3] = tested on: Du145 (prostate carcinoma); assay: Cancer screening (MTT growth inhibition), Du145; assay type: cell-based; details: 72 h; for Percentage (%) cell growth inhibition: 25 µM of drug; for Percentage (%) cell growth inhibition / inhibition at 25 µM: n = 3, mean ± SEM; for inhibition at 25 µM: DU-145, 25 µM of drug, read-out: Percentage (%) cell growth inhibition
Method: as §5, §6

[4] = at 100 μM, in methanol, read-out: inhibition %
[5] = at 100 μM, read-out: NI: No inhibition

Compound | NI: No inhibition ([1]; at 100 μM) | inhibition % ([1]; at 100 μM) [%] | Percentage (%) cell growth inhibition (BE2-C (neuroblastoma)) [%] | NI: No inhibition ([2]; at 100 μM) | inhibition % ([2]; at 100 μM) [%] | Percentage (%) cell growth inhibition [3] [%] | inhibition at 100 µM (Jack bean α-mannosidase; [4]) [%] | inhibition at 100 µM (Jack bean α-mannosidase; [5]) [%] | inhibition at 25 µM (BE2-C (neuroblastoma); Homo sapiens, BE(2)-C) [%] | inhibition at 25 µM ([3]; Homo sapiens) [%] | NI: No inhibition ([1]; at 1000 μM) | inhibition % ([1]; at 1000 μM) [%] | NI: No inhibition ([2]; at 1000 μM) | inhibition % ([2]; at 1000 μM) [%] | further results
N[C@@H](Cc1ccc(B(O)O)cc1)C(=O)O [^10B-BPA] | NI (No inhibition (less than 50% inhibition at 100 μM)) | 0 | 10 ± 6 | NI (No inhibition (less than 50% inhibition at 100 μM)) | 0 | 15 ± 9 |  |  |  |  |  |  |  |  | NI: No inhibition (Jack bean α-mannosidase; at 100 μM): NI (No inhibition (less than 50% inhibition at 100 μM)); inhibition % (Jack bean α-mannosidase; at 100 μM, in methanol): 0%
CC1(C)OCC(C2OC3OC(C)(C)OC3C2[B-]23OCC[NH+]2CCO3)O1 [Compound 6, 3-Deoxy-3-Boronodiethanolamine-1,2:5,6-Di-O-isopropylidene-α-D-galactofuranose] | NI (No inhibition (less than 50% inhibition at 100 μM)) | 16.3 |  | NI (No inhibition (less than 50% inhibition at 100 μM)) | 0.3 |  | 0 | < 50 | 2 ± 5 | 0 |  |  |  |  | 
OCC1OC(O)C(O)C(B(O)O)C1O [Compound 7, 3-Boronic-3-Deoxy-D-galactose] |  |  |  |  |  |  |  |  | 1 ± 2 | 7 ± 4 | NI (No inhibition (less than 50% inhibition at 1000 μM)) | 40.7 | NI (No inhibition (less than 50% inhibition at 1000 μM)) | 0 | inhibition at 1000 µM (Jack bean α-mannosidase; at 1000 μM, in methanol, read-out: inhibition %): 0%; inhibition at 1000 µM (Jack bean α-mannosidase; at 1000 μM, read-out: NI: No inhibition): < 50%; GI50 (BE2-C (neuroblastoma); Homo sapiens, BE(2)-C, dose response, read-out: GI50 = Concentration that inhibits cell growth by 50%): > 50 µM; GI50 ([3]; Homo sapiens, DU-145, dose response, read-out: GI50 = Concentration that inhibits cell growth by 50%): > 50 µM
N[C@@H](Cc1ccc(B(O)O)cc1)C(=O)O [BPA, 4-borono-L-phenylalanine] | NI (No inhibition (less than 50% inhibition at 100 μM)) | 10.9 |  | NI (No inhibition (less than 50% inhibition at 100 μM)) | 0 |  | 1.1 | < 50 | 13 ± 10 | 19 ± 10 |  |  |  |  | 
Borocaptate sodium [BSH] |  |  | 10 ± 6 |  |  | 0 ± 8 |  |  |  |  | NI (No inhibition (less than 50% inhibition at 1000 μM)) | 0 | NI (No inhibition (less than 50% inhibition at 1000 μM)) | 0.2 | NI: No inhibition (Jack bean α-mannosidase; at 1000 μM): NI (No inhibition (less than 50% inhibition at 1000 μM)); inhibition % (Jack bean α-mannosidase; at 1000 μM, in methanol): 7.9%
